In data set [1] the target is Acetylcholinesterase (Homo sapiens, UniProt P22303). The experiment in a line: Inhibition of human AChE using acetylthiocholine iodide as substrate measured after 15 to 20 mins by DTNB reagent based Ellman's method.
Data set [2] addresses Cholinesterase (Homo sapiens, UniProt P06276). In words: Inhibition of human BuChE measured after 15 to 20 mins by DTNB reagent based Ellman's method. A general note: Ellman's reagent forms a yellow product with free thiols.
For data set [3], the target named is Glycogen synthase kinase-3 beta (Homo sapiens, UniProt P49841). The experiment in a line: Inhibition of human GSK3beta by luminescent microplate reader method.
The target of data set [4] is T1, Microtubule-associated protein tau (Homo sapiens, UniProt P10636). In words: Inhibition of human tau protein aggregation at 10 uM incubated for 1.5 hrs by TMB substrate based ELISA relative to control. A general note: In an ELISA, binding on a coated surface is turned into a signal by an enzyme label.
For data set [5], the target named is T1, Microtubule-associated protein tau. In words: Inhibition of human tau protein aggregation incubated for 1.5 hrs by TMB substrate based ELISA.
Data set [6] addresses T2, Amyloid-beta precursor protein (Homo sapiens, UniProt P05067). The experiment in a line: Inhibition of self-mediated Amyloid beta (1 to 42) (unknown origin) aggregation at 10 uM measured every 5 mins by ThT fluorescence based assay relative to control.
In data set [7] the target is T2, Amyloid-beta precursor protein. In words: Inhibition of self mediated Amyloid beta (1 to 42) (unknown origin) aggregation measured every 5 mins by ThT fluorescence based assay.
Data set [8] can be described thus: Metal chelating activity assessed as Fe2+-compound complex formation by measuring hyperchromic shift in presence of FeSO4 by UV-Vis spectroscopy.
Data set [9] can be described thus: Metal chelating activity assessed as Cu2+-compound complex formation by measuring hypochromic shift in presence of CuSO4 by UV-Vis spectroscopy.
A short description of data set [10]: Metal chelating activity assessed as Zn2+-compound complex formation by measuring hypochromic shift in presence of ZnSO4 by UV-Vis spectroscopy.
Data set [11] can be described thus: Cytotoxicity against human WI-38 cells assessed as inhibition of cell growth incubated for 72 hrs by MTT assay. The format is toxicity, cell-based.
Data set [12] has as its system human AChE. In words: Safety index, ratio of IC50 for cytotoxicity against human WI-38 cells to IC50 for human AChE. The format is toxicity, cell-based. The note with it: read-out: Ratio IC50.
Data set [13] is described as follows: Cytotoxicity against human WI-38 cells assessed as cell viability upto 3.125 uM incubated for 72 hrs by MTT assay relative to control. The note with it: read-out: Activity. The format is toxicity, cell-based.
A short description of data set [14]: Metal chelating activity assessed as Cu2+-compound complex formation by measuring hyperchromic shift in presence of CuSO4 by UV-Vis spectroscopy.
The nature of data set [15]: Metal chelating activity assessed as Zn2+-compound complex formation by measuring hyperchromic shift in presence of ZnSO4 by UV-Vis spectroscopy.

Molecules are shown by their SMILES. Active and inactive are the calls of the source. The calls are words filed in the database; no cut-off is given here. Non-standard residues stand in square brackets, D forms with d. Residues, ends and D or L forms follow the SMILES beside them. *: point of attachment. Myristoyl = CCCCCCCCCCCCCC(=O)*; pS = N[C@@H](COP(=O)(O)O)C(=O)O

Acetylcholinesterase, sequence (P22303 whole entry): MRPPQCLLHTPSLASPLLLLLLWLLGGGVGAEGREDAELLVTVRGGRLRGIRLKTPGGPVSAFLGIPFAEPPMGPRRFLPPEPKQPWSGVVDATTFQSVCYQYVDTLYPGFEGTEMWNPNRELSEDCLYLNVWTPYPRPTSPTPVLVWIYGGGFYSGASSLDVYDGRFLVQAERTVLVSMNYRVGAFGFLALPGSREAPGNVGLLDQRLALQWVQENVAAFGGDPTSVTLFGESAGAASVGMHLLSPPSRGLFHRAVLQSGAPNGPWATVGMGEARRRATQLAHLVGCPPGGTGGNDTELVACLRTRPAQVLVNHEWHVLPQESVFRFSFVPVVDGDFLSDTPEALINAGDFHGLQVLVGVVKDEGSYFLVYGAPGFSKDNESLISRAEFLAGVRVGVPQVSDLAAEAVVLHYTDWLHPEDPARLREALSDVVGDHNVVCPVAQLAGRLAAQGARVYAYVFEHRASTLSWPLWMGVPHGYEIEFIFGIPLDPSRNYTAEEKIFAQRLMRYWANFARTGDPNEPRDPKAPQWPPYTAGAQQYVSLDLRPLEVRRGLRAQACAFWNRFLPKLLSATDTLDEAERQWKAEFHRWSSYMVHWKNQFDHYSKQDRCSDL
T2 sequence (P05067 whole entry): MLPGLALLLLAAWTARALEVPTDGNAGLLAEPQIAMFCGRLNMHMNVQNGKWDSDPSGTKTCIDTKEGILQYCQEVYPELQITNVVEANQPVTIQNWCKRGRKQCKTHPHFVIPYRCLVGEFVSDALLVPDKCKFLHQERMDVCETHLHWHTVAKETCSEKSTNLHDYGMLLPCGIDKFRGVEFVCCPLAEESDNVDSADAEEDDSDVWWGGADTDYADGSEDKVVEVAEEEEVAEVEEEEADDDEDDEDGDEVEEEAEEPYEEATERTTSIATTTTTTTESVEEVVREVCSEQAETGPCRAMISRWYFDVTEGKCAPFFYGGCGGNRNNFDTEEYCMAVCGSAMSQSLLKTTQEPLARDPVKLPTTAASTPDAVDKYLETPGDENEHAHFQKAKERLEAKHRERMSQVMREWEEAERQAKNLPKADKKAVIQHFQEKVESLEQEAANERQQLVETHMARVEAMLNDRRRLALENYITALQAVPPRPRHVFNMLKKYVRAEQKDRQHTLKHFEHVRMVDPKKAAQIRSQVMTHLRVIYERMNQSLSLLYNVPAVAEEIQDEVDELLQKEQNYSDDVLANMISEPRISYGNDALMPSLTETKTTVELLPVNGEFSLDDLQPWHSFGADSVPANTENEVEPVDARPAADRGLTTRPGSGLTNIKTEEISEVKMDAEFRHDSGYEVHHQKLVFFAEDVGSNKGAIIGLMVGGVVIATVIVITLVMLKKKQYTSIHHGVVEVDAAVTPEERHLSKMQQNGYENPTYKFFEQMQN
T1 sequence (P10636 whole entry): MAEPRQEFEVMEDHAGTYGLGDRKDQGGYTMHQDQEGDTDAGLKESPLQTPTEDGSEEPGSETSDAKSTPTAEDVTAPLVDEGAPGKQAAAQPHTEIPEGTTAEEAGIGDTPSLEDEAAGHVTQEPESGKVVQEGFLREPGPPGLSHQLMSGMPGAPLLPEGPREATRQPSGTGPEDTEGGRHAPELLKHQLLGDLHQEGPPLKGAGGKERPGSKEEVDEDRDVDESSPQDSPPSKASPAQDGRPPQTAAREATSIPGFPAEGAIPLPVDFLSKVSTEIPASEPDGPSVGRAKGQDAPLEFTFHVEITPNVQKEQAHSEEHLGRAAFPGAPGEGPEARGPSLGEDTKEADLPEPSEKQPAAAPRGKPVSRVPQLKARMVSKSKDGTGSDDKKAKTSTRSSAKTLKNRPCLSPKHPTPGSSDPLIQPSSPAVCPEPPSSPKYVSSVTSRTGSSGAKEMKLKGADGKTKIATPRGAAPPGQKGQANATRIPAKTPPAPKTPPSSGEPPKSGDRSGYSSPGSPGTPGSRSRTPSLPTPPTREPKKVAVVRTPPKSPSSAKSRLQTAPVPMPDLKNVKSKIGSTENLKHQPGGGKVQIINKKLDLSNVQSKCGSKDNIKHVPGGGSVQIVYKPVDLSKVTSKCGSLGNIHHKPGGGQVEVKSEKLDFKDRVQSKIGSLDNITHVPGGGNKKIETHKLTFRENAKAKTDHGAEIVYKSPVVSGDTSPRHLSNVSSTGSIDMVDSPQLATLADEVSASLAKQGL
Glycogen synthase kinase-3 beta, sequence (P49841 whole entry): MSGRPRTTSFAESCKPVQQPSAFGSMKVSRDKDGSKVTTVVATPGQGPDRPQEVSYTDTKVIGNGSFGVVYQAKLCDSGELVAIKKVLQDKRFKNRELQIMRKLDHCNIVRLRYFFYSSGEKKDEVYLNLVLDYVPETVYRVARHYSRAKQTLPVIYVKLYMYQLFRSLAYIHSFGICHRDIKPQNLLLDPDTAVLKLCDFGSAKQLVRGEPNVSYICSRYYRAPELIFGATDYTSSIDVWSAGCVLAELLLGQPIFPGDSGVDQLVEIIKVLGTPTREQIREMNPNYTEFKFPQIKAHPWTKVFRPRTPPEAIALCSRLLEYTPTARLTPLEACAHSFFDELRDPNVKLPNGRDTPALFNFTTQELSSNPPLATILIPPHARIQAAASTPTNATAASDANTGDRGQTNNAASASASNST
Cholinesterase, sequence (P06276 whole entry): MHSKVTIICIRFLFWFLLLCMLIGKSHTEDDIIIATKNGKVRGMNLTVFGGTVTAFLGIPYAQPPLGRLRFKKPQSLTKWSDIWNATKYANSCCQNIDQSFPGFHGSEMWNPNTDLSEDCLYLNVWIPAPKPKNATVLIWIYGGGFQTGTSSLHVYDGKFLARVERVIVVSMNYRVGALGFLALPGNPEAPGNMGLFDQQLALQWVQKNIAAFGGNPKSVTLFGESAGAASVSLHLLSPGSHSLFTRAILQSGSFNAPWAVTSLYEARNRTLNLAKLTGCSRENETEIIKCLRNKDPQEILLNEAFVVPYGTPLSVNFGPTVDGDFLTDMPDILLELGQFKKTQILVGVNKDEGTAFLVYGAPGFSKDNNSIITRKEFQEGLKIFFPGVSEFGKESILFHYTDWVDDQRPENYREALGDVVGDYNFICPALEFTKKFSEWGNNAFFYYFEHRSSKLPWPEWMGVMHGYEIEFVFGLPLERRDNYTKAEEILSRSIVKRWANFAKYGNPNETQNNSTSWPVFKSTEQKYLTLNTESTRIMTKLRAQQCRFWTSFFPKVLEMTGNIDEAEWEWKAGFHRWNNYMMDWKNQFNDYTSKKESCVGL

The term IC50 denotes the concentration that gives 50% inhibition. The molecule `COc1ccc(-c2cc(-c3ccc(OC)cc3)c3c(N)n[nH]c3n2)cc1` had an IC50 in data set [1] of 260 nM.

As for `COc1cc(-c2cc(-c3ccccc3)nc3[nH]nc(N)c23)cc(OC)c1OC`, in [1], the midpoint of inhibition, the IC50, lay at 1890 nM.

The term inhibition denotes the share of the control response that was lost under treatment. The low end stands for a weak effect, the high end for a strong effect. For the molecule `COc1ccc(-c2cc(-c3ccc(Br)cc3)nc3[nH]nc(N)c23)cc1OC`, the IC50 in data set [1] is 160 nM; in data set [2], 690 nM; in data set [3] it was 260 nM; in data set [5] it was 20300 nM; in data set [7], 770 nM. Further, the results for the inhibition in [4] and in [6] were 60% and 75%, respectively. The outcome in [8], in [9] and in data set [10] was Active. Further, the IC50 at 72 h in [11] came out at 84500 nM. For the same molecule, the selectivity ratio in data set [12] amounted to 528. Moreover, in [13], the viability at 72 h, 3.125 µM worked out at 100%.

Turning to `COc1ccc(-c2cc(-c3ccccc3)nc3[nH]nc(N)c23)cc1`, in data set [1], half-maximal inhibition (IC50) required 22400 nM.

`COc1ccc(-c2cc(-c3cc(OC)c(OC)c(OC)c3)c3c(N)n[nH]c3n2)cc1` returned an IC50 in [1] of 6010 nM.

`COc1ccc(-c2cc(-c3ccc(Br)cc3)c3c(N)n[nH]c3n2)cc1` came in with an IC50 in [1] of 3720 nM.

In [3], `CCCCCCCCCCCCCC(=O)N[C@@H](CCCCN)C(=O)N[C@@H](CCC(=O)O)C(=O)N[C@@H](C)C(=O)N1CCC[C@H]1C(=O)N1CCC[C@H]1C(=O)N[C@@H](CO)C(=O)N1CCC[C@H]1C(=O)N1CCC[C@H]1C(=O)N[C@@H](CCC(N)=O)C(=O)N[C@@H](COP(=O)(O)O)C(=O)N1CCC[C@H]1C(=O)O` (Myristoyl-KEAPPSPPQ[pS]P-OH) had an IC50 of 1000 nM.

With `COc1cc(-c2cc(-c3ccc(Br)cc3)nc3[nH]nc(N)c23)cc(OC)c1OC`, in data set [1], the IC50 is 630 nM.

As for `Nc1n[nH]c2nc(-c3ccccc3)cc(-c3ccc(Br)cc3)c12`, in data set [1], the 50% inhibitory concentration (IC50) amounted to 2240 nM.

`Nc1n[nH]c2nc(-c3ccccc3)cc(-c3ccccc3)c12` came in with an IC50 in data set [1] of 5270 nM.

`COc1ccc(-c2cc(-c3ccc(OC)c(OC)c3)c3c(N)n[nH]c3n2)cc1` yielded an IC50 in data set [1] of 810 nM.

With `Nc1n[nH]c2nc(-c3ccc(Br)cc3)cc(-c3ccc(Br)cc3)c12`, the IC50 in data set [1] amounted to 170 nM; in [2] it was 170 nM; in [3], 210 nM; in data set [5], 11600 nM; in data set [7], 460 nM. Moreover, the values for the inhibition in data set [4] and in data set [6] were 66% and 79%, respectively. Further, the outcome in data set [8], in [14] and in [15] was Active. In addition, the IC50 at 72 h in [11] came to 58300 nM. The selectivity ratio in data set [12] amounted to 343. The viability at 72 h, 3.125 µM in [13] worked out at 100%.

`COc1ccc(-c2cc(-c3ccc(Br)cc3)nc3[nH]nc(N)c23)cc1`: the midpoint of inhibition in data set [1], the IC50, lay at 350 nM.

As for `COc1ccc(-c2cc(-c3ccccc3)nc3[nH]nc(N)c23)cc1OC`, in data set [1], the IC50 was 9630 nM.

For the origin of these results see ChEMBL document CHEMBL5634147, “Multi-targeted anti-Alzheimer's agents: Synthesis, biological evaluation, and molecular modeling study of some pyrazolopyridine hybrids” (Eur J Med Chem, 2023).
